# Measurements from US12595253B2, “Benzamides of pyrazolylamino-pyrimidinyl derivatives, and compositions and methods thereof” (LYNK PHARMACEUTICALS CO. LTD., priority 2019, dated 2026).
# Key:
# Type in all cases: biochemical
# [1] = target: T1, JAK1 (Homo sapiens, UniProt P23458); assay: JAK1 microfluidic kinase assay (Caliper EZ Reader II, FAM labeled peptide substrate); details: IC50 JAK1 (5 nM) (1 m MATP), JAK1 5 nM, 1 mM ATP
# T1 construct: purchased Carna Biosciences
# Summary of the method: (§1)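 Microfluidic mobility-shift kinase assay in 50 mM HEPES, 0.01% Brij35, 10 mM MgCl2, 2 mM DTT. IC50 values come from percent-inhibition curves normalised to uninhibited and enzyme-free controls.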
# [2] = target: T2, JAK2 (Homo sapiens, UniProt O60674); assay: JAK2 microfluidic kinase assay (Caliper EZ Reader II, FAM labeled peptide substrate)
# T2 construct: purchased Carna Biosciences
# T2 sequence (O60674 whole entry): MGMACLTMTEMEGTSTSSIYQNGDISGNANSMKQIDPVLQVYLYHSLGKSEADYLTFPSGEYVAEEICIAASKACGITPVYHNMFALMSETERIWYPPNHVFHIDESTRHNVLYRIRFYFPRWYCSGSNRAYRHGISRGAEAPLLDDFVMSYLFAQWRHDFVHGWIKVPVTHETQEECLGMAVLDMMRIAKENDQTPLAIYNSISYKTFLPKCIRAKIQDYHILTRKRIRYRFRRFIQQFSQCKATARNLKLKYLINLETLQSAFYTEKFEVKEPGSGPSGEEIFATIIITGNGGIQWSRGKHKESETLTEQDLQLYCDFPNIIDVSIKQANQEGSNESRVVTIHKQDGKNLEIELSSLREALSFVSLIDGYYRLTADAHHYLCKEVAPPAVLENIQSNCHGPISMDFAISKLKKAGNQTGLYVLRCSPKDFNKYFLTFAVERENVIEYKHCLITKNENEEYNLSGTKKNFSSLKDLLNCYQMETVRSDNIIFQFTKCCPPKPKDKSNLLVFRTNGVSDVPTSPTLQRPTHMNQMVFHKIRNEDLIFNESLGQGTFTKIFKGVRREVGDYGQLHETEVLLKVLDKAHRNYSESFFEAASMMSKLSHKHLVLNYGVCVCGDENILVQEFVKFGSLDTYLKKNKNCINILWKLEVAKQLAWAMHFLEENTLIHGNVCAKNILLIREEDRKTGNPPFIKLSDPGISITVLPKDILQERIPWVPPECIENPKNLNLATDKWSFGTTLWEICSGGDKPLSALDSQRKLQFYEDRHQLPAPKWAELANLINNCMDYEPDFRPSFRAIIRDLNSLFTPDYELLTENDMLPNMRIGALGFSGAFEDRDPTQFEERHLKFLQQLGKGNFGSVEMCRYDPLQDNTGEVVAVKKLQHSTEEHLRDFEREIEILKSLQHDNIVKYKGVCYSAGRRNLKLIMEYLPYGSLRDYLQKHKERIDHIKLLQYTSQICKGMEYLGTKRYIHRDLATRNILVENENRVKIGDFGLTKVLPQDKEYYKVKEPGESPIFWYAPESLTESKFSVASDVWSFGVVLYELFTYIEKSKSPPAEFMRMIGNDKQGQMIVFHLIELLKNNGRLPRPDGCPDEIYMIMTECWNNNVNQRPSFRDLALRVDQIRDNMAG
# Summary of the method: as §1
# [3] = target: T3, TYK2 (Homo sapiens, UniProt P29597); assay: TYK2 microfluidic kinase assay (Caliper EZ Reader II, FAM labeled peptide substrate)
# T3 construct: purchased Carna Biosciences
# T3 sequence (P29597 whole entry): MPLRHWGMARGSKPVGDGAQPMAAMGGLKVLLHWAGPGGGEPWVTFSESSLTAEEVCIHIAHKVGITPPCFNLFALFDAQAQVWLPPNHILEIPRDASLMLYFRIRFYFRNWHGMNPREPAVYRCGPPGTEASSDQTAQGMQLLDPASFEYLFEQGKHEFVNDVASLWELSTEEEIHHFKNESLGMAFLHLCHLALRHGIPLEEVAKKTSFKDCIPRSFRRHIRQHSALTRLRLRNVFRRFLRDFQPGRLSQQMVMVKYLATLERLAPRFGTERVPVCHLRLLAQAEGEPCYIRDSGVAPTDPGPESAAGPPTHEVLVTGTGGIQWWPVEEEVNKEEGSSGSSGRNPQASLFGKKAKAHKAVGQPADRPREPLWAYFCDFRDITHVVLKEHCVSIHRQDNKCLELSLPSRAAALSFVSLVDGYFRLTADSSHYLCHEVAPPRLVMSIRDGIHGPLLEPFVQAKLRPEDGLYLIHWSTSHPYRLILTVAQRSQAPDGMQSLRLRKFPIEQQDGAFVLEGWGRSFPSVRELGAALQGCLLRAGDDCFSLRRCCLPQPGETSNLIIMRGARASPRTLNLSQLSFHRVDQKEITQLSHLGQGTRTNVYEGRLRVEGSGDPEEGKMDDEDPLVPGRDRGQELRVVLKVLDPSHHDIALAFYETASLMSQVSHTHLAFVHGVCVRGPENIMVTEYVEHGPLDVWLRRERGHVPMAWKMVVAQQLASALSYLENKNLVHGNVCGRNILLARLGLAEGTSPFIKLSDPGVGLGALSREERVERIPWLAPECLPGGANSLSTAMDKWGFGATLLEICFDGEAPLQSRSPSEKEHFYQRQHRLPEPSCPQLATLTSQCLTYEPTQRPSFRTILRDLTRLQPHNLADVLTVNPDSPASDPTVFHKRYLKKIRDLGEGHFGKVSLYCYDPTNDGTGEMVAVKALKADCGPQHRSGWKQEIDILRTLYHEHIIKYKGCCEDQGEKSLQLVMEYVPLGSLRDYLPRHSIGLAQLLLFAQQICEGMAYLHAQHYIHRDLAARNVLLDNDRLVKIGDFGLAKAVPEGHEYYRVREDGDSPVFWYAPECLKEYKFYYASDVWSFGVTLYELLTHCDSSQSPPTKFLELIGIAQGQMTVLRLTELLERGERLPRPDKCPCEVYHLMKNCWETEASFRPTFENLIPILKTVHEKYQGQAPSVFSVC
# Protocol: Compounds were tested against JAK1, JAK2, JAK2V617F and TYK2. Assay Formats: JAK activity was determined in the reaction buffer 50 mM HEPES, 0.01% Brij35, 10 mM MgCl2, 2 mM DTT by a microfluidic assay. The phosphorylation of a FAM labeled peptide substrate was monitored in the Caliper EZ Reader II (Perkin Elmer). The assay condition for each batch of enzyme (Carna Biosciences) was optimized to obtain 10% conversion rate of peptide substrate. The test compounds were dissolved in DMSO to a stock concentration of 10 mM. 3-fold serially diluted compounds with top concentration of 5 μM were pre-incubated with JAK1, JAK2, JAK2V617F or TYK2 at indicated concentrations for 10 min at ambient temperature. The final DMSO concentration of assay mixture was 1%. […] The reaction was stopped by adding 50 mM EDTA. The reaction time for JAK1, JAK2, JAK2V617F and TYK2 was 120 min, 20 min, 30 min and 10 min, respectively. […] And the well without compound but with equivalent DMSO was defined as no inhibition. The percent inhibition was calculated by the following formula. % Inhibition=(Conversionmax−Conversionsample)/(Conversionmax−Conversionmin)*100 • Conversionmax means the conversion rate in the positive well without addition of compound • Conversionmin means the conversion rate in the well without addition of enzyme • Conversionsample means the conversion rate of test compounds The dose-response (percent inhibition) curve was plotted and IC50 values were determined by GraphPad software.
# [4] = target: T4, JAK2V617F (Homo sapiens, UniProt O60674, V617F); assay: JAK2V617F microfluidic kinase assay (Caliper EZ Reader II, FAM labeled peptide substrate); details: JAK2V617F 2.5 nM, 1 mM ATP
# T4 construct: purchased Carna Biosciences
# T4 sequence (O60674 whole entry V617F): as the sequence (O60674 whole entry) above, with V617F counted along it
# Protocol: Compounds were tested against JAK1, JAK2, JAK2V617F and TYK2. Assay Formats: JAK activity was determined in the reaction buffer 50 mM HEPES, 0.01% Brij35, 10 mM MgCl2, 2 mM DTT by a microfluidic assay. The phosphorylation of a FAM labeled peptide substrate was monitored in the Caliper EZ Reader II (Perkin Elmer). The assay condition for each batch of enzyme (Carna Biosciences) was optimized to obtain 10% conversion rate of peptide substrate. The test compounds were dissolved in DMSO to a stock concentration of 10 mM. 3-fold serially diluted compounds with top concentration of 5 μM were pre-incubated with JAK1, JAK2, JAK2V617F or TYK2 at indicated concentrations for 10 min at ambient temperature. The final DMSO concentration of assay mixture was 1%. […] The reaction was stopped by adding 50 mM EDTA. […] The percent inhibition was calculated by the following formula. % Inhibition=(Conversionmax−Conversionsample)/(Conversionmax−Conversionmin)*100 • Conversionmax means the conversion rate in the positive well without addition of compound • Conversionmin means the conversion rate in the well without addition of enzyme • Conversionsample means the conversion rate of test compounds The dose-response (percent inhibition) curve was plotted and IC50 values were determined by GraphPad software.
# [5] = IC50 JAK2 ([…]) (1 mM ATP), 1 mM ATP
# [6] = IC50 TYK2 ([…]) (1 mM ATP), TYK2 […], 1 mM ATP
# [7] = IC50 JAK2 ([…]) (Km ATP), Km ATP
# T1 sequence (P23458 whole entry): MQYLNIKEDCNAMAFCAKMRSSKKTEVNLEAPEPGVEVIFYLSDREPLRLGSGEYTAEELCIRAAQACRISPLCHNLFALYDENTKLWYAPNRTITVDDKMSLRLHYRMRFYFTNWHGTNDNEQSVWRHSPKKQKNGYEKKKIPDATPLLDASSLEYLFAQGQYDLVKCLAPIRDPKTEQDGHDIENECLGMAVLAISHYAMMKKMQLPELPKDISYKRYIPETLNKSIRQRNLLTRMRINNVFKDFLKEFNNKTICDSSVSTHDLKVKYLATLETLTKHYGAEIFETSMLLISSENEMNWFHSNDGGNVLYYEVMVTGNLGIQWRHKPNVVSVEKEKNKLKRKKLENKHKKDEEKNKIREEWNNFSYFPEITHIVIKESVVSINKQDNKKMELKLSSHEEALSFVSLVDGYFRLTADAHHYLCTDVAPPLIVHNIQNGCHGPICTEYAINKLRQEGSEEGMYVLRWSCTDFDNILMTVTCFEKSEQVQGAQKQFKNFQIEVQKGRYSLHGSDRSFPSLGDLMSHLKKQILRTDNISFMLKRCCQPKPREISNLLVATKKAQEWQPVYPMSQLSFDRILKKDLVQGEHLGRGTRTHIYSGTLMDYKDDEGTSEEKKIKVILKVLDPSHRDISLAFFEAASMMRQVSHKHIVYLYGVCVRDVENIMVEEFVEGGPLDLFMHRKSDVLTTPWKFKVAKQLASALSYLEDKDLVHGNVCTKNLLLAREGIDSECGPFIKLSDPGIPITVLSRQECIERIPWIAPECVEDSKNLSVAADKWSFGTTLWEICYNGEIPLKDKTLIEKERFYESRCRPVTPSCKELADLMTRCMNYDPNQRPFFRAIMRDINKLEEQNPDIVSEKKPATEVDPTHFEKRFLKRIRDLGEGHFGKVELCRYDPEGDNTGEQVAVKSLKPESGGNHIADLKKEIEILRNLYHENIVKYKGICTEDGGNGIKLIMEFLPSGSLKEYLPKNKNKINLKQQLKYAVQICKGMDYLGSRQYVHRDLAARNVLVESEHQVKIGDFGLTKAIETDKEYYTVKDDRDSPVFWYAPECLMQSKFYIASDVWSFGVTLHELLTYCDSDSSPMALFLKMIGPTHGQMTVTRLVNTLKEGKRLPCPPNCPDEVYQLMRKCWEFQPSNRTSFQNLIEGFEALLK
SMILES,IC50 [1] [nM],"IC50 [2, 5] [nM]","IC50 [3, 6] [nM]","IC50 [2, 7] [nM]","IC50 ([3]; IC50 TYK2 (10 nM) (Km ATP), TYK2 10 nM, Km ATP) [nM]",IC50 [4] [nM]
"Cc1cnc(Nc2cnn(C3CCNCC3)c2)nc1-c1ccc(C(=O)N[C@@H](C)C#N)cc1 [Example 170, (S)—N-(1-Cyanoethyl)-4-(5-methyl-2-((1-(piperidin-4-yl)-1H-pyrazol-4-yl)amino)pyrimidin-4-yl)benzamide]",6.66,0.78,1.04,–,–,–
"CCC[C@@H](C#N)NC(=O)c1ccc(-c2nc(Nc3cnn(C4CCNCC4)c3)ncc2C)cc1 [Example 175, (S)—N-(1-Cyanobutyl)-4-(5-methyl-2-((1-(piperidin-4-yl)-1H-pyrazol-4-yl)amino)pyrimidin-4-yl)benzamide]",1.48,0.51,2.22,–,–,–
"C[C@@H](C#N)NC(=O)c1ccc(-c2nc(Nc3cn[nH]c3)ncc2Cl)cc1 [Example 188, (S)-4-(2-((1H-pyrazol-4-yl)amino)-5-chloropyrimidin-4-yl)-N-(1-cyanoethyl)benzamide]",2.9,18.3,20.4,–,–,–
"CCC[C@@H](C#N)NC(=O)c1ccc(-c2nc(Nc3cnn(C4CCN(C)CC4)c3)ncc2C)cc1 [Example 176, (S)—N-(1-cyanobutyl)-4-(5-methyl-2-((1-(1-methylpiperidin-4-yl)-1H-pyrazol-4-yl)amino)pyrimidin-4-yl)benzamide]",1.35,0.85,1.1,–,–,–
"Cc1cnc(Nc2ccn(C)n2)nc1-c1ccc(C(=O)NCC#N)cc1 [Example 107, N-(Cyanomethyl)-4-(5-methyl-2-((1-methyl-1H-pyrazol-3-yl)amino)pyrimidin-4-yl)benzamide]",2310,1150,> 5000,28.1,–,–
"CC[C@@H](C#N)NC(=O)c1ccc(-c2nc(Nc3cnn(CCC#N)c3)ncc2Cl)cc1 [Example 190, (S)-4-(5-chloro-2-((1-(2-cyanoethyl)-1H-pyrazol-4-yl)amino)pyrimidin-4-yl)-N-(1-cyanopropyl)benzamide]",3.83,22.1,45,–,–,–
"Cc1cnc(Nc2cnn(C3C[C@@H](C)N[C@H](C)C3)c2)nc1-c1ccc(C(=O)N[C@@H](C)C#N)cc1 (stereo partly drawn) [Example 230, N—((S)-1-cyanoethyl)-4-(2-((1-(trans-2,6-dimethylpiperidin-4-yl)-1H-pyrazol-4-yl)amino)-5-methylpyrimidin-4-yl)benzamide]",14.2,0.71,24.2,–,–,–
"CC[C@@H](C#N)NC(=O)c1ccc(-c2nc(Nc3cnn(C4CCNCC4)c3)ncc2C)cc1 [Example 171, (S)—N-(1-Cyanopropyl)-4-(5-methyl-2-((1-(piperidin-4-yl)-1H-pyrazol-4-yl)amino)pyrimidin-4-yl)benzamide]",1.84,0.78,0.88,–,–,–
"Cc1cnc(Nc2cnn(CC#N)c2)nc1-c1ccc(C(=O)N[C@H](C)C#N)cc1 [Example 54, (R)—N-(1-cyanoethyl)-4-(2-((1-(cyanomethyl)-1H-pyrazol-4-yl)amino)-5-methylpyrimidin-4-yl)benzamide]",34.3,210,304,–,–,–
"Cc1cnc(Nc2cnn(C3CCC(O)CC3)c2)nc1-c1ccc(C(=O)N[C@@H](C)C#N)cc1 (stereo partly drawn) [Example 209, (S)—N-(1-cyanoethyl)-4-(2-((1-(4-hydroxycyclohexyl)-1H-pyrazol-4-yl)amino)-5-methylpyrimidin-4-yl)benzamide]",14.3,< 0.25,9.11,–,–,–
"CC[C@@H](C#N)NC(=O)c1ccc(-c2nc(Nc3cnn(C(C)C(F)(F)F)c3)ncc2C)cc1 (single isomer, unassigned) [Example 225, N—((S)-1-Cyanopropyl)-4-(5-methyl-2-((1-((R*)-1,1,1-trifluoropropan-2-yl)-1H-pyrazol-4-yl)amino)pyrimidin-4-yl)benzamide]",8.95,42.6,66.9,–,–,–
"Cc1cnc(Nc2cnn(CCO)c2)nc1-c1ccc(C(=O)N[C@H](C#N)C(C)C)cc1 [Example 191, (S)—N-(1-cyano-2-methylpropyl)-4-(2-((1-(2-hydroxyethyl)-1H-pyrazol-4-yl)amino)-5-methylpyrimidin-4-yl)benzamide]",1.63,41.3,53.9,–,–,–
"CC[C@@H](C#N)NC(=O)c1ccc(-c2nc(Nc3cnn(C4CCCNC4)c3)ncc2C)cc1 (stereo partly drawn) [Example 210, N—((S)-1-cyanopropyl)-4-(5-methyl-2-((1-(piperidin-3-yl)-1H-pyrazol-4-yl)amino)pyrimidin-4-yl)benzamide]",11.4,2.39,88.2,–,–,–
"C[C@@H](C#N)NC(=O)c1ccc(-c2nc(Nc3cnn(C4CCN(C(=O)CO)CC4)c3)ncc2Cl)cc1 [Example 214, (S)-4-(5-chloro-2-((1-(1-(2-hydroxyacetyl)piperidin-4-yl)-1H-pyrazol-4-yl)amino)pyrimidin-4-yl)-N-(1-cyanoethyl)benzamide]",15.6,< 0.25,59.6,–,–,–
"N#CCNC(=O)c1ccc(-c2nc(Nc3cnn(CC#N)c3)ncc2F)cc1 [Example 45, N-(cyanomethyl)-4-(2-((1-(cyanomethyl)-1H-pyrazol-4-yl)amino)-5-fluoropyrimidin-4-yl)benzamide]",59.6,256,251,–,–,–
"N#CCNC(=O)c1ccc(-c2nc(Nc3cnn(CC#N)c3)ncc2Cl)cc1 [Example 41, 4-(5-Chloro-2-((1-(cyanomethyl)-1H-pyrazol-4-yl)amino)pyrimidin-4-yl)-N-(cyanomethyl)benzamide]",6.45,31.8,71.2,–,–,–
"N#CC1CN(C(=O)c2ccc(-c3nc(Nc4cnn(C5CC5)c4)ncc3C(F)F)cc2F)C1 [Example 126, 1-(4-(2-((1-Cyclopropyl-1H-pyrazol-4-yl)amino)-5-(difluoromethyl)pyrimidin-4-yl)-2-fluorobenzoyl)azetidine-3-carbonitrile]",–,–,–,–,1770,–
"Cc1cnc(Nc2cn[nH]c2)nc1-c1ccc(C(=O)N[C@@H](C)C#N)cc1 [Example 199, (S)-4-(2-((1H-Pyrazol-4-yl)amino)-5-methylpyrimidin-4-yl)-N-(1-cyanoethyl)benzamide]",–,30.8,30.2,–,–,–
"Cc1cnc(Nc2cnn(C3CCN(C(=O)C4(C(F)(F)F)CC4)CC3)c2)nc1-c1ccc(C(=O)NCC#N)cc1 [Example 115, N-(Cyanomethyl)-4-(5-methyl-2-((1-(1-(1-(trifluoromethyl)cyclopropanecarbonyl)piperidin-4-yl)-1H-pyrazol-4-yl)amino)pyrimidin-4-yl)benzamide]",20.8,< 0.25,–,< 0.25,–,2.06
"Cc1cnc(Nc2cnn(C)c2)nc1-c1ccc(C(=O)N[C@H]2C[C@@H](C#N)C2)cc1 [Example 16, N-((cis)-3-Cyanocyclobutyl)-4-(5-methyl-2-((1-methyl-1H-pyrazol-4-yl)amino)pyrimidin-4-yl)benzamide]",124,–,–,13.6,–,796
"Cc1cnc(Nc2cnn(C3CCN(S(C)(=O)=O)CC3)c2)nc1-c1ccc(C(=O)NCC2(C#N)CC2)cc1 [Example 159, N-((1-cyanocyclopropyl)methyl)-4-(5-methyl-2-((1-(1-(methylsulfonyl)piperidin-4-yl)-1H-pyrazol-4-yl)amino)pyrimidin-4-yl)benzamide]",24.1,4.82,–,–,–,36.7
